According to patent publication US20100028849A1, “NOVEL PROCESS FOR DEVITALIZED/ACELLULAR TISSUE FOR TRANSPLANTATION” (priority 2006, published 2010):

Key:
S. epidermidis = experiment: antimicrobial ability of ozone in aqueous solution, plating on agar (CFU); type: cell-based; conditions: 5-10 ppm ozone in sterile water; for Final (CFU/mL): initial inoculum 2.1 × 10^8 CFU/mL
Protocol: S. epidermidis was subjected to 5-10 ppm ozone in sterile water, followed by plating the organisms onto agar plates and placing the plates in a 37° C. incubator.

[1] = tested on: human skin (epidermis and dermis intact) tissue cells; experiment: alamarBlue viability assay of human skin exposed to ozone; type: cell-based; conditions: 60 minutes of ozone exposure in sterile normal saline with agitation; 5-20 ppm, 4 C to 25 C
Description: This example measured the effect of ozone on human skin. Human skin (epidermis and dermis intact) was exposed to ozone for various lengths of time. Ozone was pumped through an aqueous solution (sterile normal saline) obtaining levels between 5 and 20 ppm at temperatures between 4 C and 25 C. An alamarBlue™ viability assay, which is supplied by Invitrogen Corporation of Carlsbad, Calif., was used to quantify viability of the tissue cells. The alamarBlue™ dye is reduced by metabolic intermediates within a cell; reduction of the dye is then measured spectrophotometrically.
To perform the alamarBlue™ assay, human skin was sectioned into 6 mm diameter discs and placed individually into wells of a 24-well tissue culture plate. To each sample, 10% alamarBlue™ reagent in RPMI-1640 was added. The plate was incubated at 37° C. on an orbital shaker for 4 hours. Each well was then sampled in triplicate to a 96-well assay plate. The absorbance of the plate was measured at 600 nm and 570 nm, where the […]. The absorbencies were then used to calculate the percent reduction of alamarBlue™ dye, as follows: […]

**Q.** For O=[O+][O-] [Ozone, ozone], which “Log Reduction” value (S. epidermidis; 2.5 min exposed to ozone) is on record?
**A.** Its value is 8 log.

**Q.** And the “Final (CFU/mL)” value (S. epidermidis; 2.5 min exposed to ozone)?
**A.** Its value is 0 CFU/mL.

**Q.** What about the “Log Reduction” value (S. epidermidis; 5 min exposed to ozone) of the same molecule?
**A.** The value was 8 log.

**Q.** And the “Final (CFU/mL)” value (S. epidermidis; 5 min exposed to ozone)?
**A.** The value was 0 CFU/mL.

**Q.** What about the “Log Reduction” value (S. epidermidis; 7.5 min exposed to ozone) of the same molecule?
**A.** Its value is 8 log.

**Q.** And the “Final (CFU/mL)” value (S. epidermidis; 7.5 min exposed to ozone)?
**A.** Its value is 0 CFU/mL.

**Q.** And the “Log Reduction” value (S. epidermidis; 10 min exposed to ozone)?
**A.** The value was 8 log.

**Q.** What about the “Final (CFU/mL)” value (S. epidermidis; 10 min exposed to ozone) of the same molecule?
**A.** Its value is 0 CFU/mL.

**Q.** And the “Log Reduction” value (S. epidermidis; 20 min exposed to ozone)?
**A.** Its value is 8 log.

**Q.** What about the “Final (CFU/mL)” value (S. epidermidis; 20 min exposed to ozone) of the same molecule?
**A.** Its value is 0 CFU/mL.

**Q.** What about the “log reduction in colony forming units (CFU)” value (S. epidermidis; at 2.5 minutes or longer, total kill of microbes) of the same molecule?
**A.** Its value is 8 log.

**Q.** And the “viability of the tissue cells (percent reduction of alamarBlue dye)” value [1]?
**A.** Its value is “death of the cells within the skin”.
